{
  "source": "paper PMC11919836",
  "about": "“Multi-omics analysis reveals Jianpi formula-derived bioactive peptide-YG-22 potentially inhibited colorectal cancer via regulating epigenetic reprogram and signal pathway regulation” (Frontiers in Genetics, 2025)",
  "key": {"HCT116 cells [1]": {"system": "HCT116 cells", "experiment": "CCK-8 cell viability assay of candidate peptides", "format": "cell-based", "conditions": "peptide 5 mg/mL, 24 h, CCK-8, absorbance 450 nm, mean ± SEM n = 3, P < 0.01 vs control", "excerpt": "(§1) After comparing the differential expressed peptides between two treatment groups: chemotherapy alone (n = 5) and chemotherapy combined with Jianpi formula (n = 5). Six candidate peptides were finally screened out, including YP-16 (YGRKKRRQRRR-GPSVP), YP-17 (YGRKKRRQRRR-OLTSGP), YG-22 (YGRKKRRQRRR-DGSPGKDGVRG), YM-22 (YGRKKRRQRRR-LGEAFDGARDM), YP-23 (YGRKKRRQRRR-MEPLGRQLTSGP), and YD-28 (YGRKKRRQRRR-EDPQGDAAOKTDTSHHD). And then, the candidate peptides were synthesized based on their amino acid sequences to evaluate their effects on HCT116 cell viability. Briefly, a total of 1,500 cells per well were seeded in 96-well plates and incubated overnight in a culture medium under appropriate conditions. Following incubation, the cells were treated with indicated peptides (5 mg/mL) at the desired concentrations for 24 h. Cell viability was then assessed using the CCK-8 assay (Dojindo, Japan), following the manufacturer’s instructions. After adding the CCK-8 reagent and incubating for the recommended time, absorbance was measured at 450 nm using a spectrophotometric plate reader (Bio-Tek, United States). Furthermore, HCT116 cells were treated with varying concentrations of YG-22 (0, 2, 4, 6, 8, and 10 mg/mL) for either 24 or 48 h to determine the IC50 values. After the incubation with YG-22 (IC50 concentration) for 48 h, the HCT116 cells were collected for subsequent analyses, including RNA sequencing (RNA-seq) to evaluate gene expression profiles, liquid chromatography-mass spectrometry (LC-MS) for metabolite analysis, assay for transposase-accessible chromatin using sequencing (ATAC-seq) to assess chromatin accessibility, and chromatin immunoprecipitation sequencing (ChIP-seq) to study the H3K4Me3 profiling and NF-κB protein-DNA interactions.\nThere were at least three biological replicates, excluding ATAC-seq and ChIP-seq analysis, for each group. Cell viability evaluation data were reported as means ± SEM. Student’s t-test (two-tailed) or one-way ANOVA with Bonferroni’s multiple comparison test were used. P-values of <0.05, or 0.01, or 0.001 were deemed significant."}, "HCT116 cells [2]": {"system": "HCT116 cells", "experiment": "Chromatin accessibility analysis (ATAC-seq) of YG-22-treated cells", "format": "cell-based", "conditions": "HCT116, YG-22 1.769 mg/mL, 48 h", "excerpt": "as §1, with “After the incubation with YG-22 (IC50 concentration) for 48 h, the HCT116 cells were collected for subsequent analyses, including RNA sequencing (RNA-seq) to evaluate gene expression profiles, liquid chromatography-mass spectrometry (LC-MS) for metabolite analysis, assay for transposase-accessible chromatin using sequencing (ATAC-seq) to assess chromatin accessibility, and chromatin immunoprecipitation sequencing (ChIP-seq) to study the H3K4Me3 profiling and NF-κB protein-DNA interactions.” left out"}, "H3K4Me3 in HCT116 cells": {"system": "H3K4Me3 in HCT116 cells", "experiment": "ChIP-seq H3K4Me3 profiling of YG-22-treated cells", "format": "cell-based, human", "conditions": "48 h", "excerpt": "as §1\nChIP-seq analysis for H3K4Me3 profiling and NF-κB protein-DNA interactions was conducted using a combination of chromatin immunoprecipitation and high-throughput sequencing. HCT116 cells (5 × 10^6) were fixed with 1% formaldehyde to crosslink proteins and DNA, followed by quenching with glycine and lysis to isolate chromatin. The chromatin was sonicated to fragment DNA, and immunoprecipitation was performed using specific antibodies for H3K4Me3 and NF-κB, coupled with Protein A + G magnetic beads. The immunoprecipitated complexes were reverse crosslinked, and DNA was purified. High-throughput sequencing libraries were prepared through end repair, A-tailing, adapter ligation, and PCR amplification, targeting fragment sizes of 100–300 bp. Sequencing was performed on the Illumina NovaSeq 6,000 platform.\nBioinformatics analysis included quality control using FastQC, adapter trimming with fastp, and alignment of clean reads to the human reference genome (hg38) using Bowtie2. Peak calling was conducted with MACS2 to identify binding sites and histone modifications, followed by annotation using ChIPseeker. Motif analysis, using MEME and HOMER, identified enriched motifs within peak regions, particularly for NF-κB binding. Functional enrichment analysis was carried out with KEGG pathways to link identified peaks to pathways. Visualization tools, such as heatmaps and Circos plots, were used to highlight binding site distribution and signal enrichment across the genome, providing insights into chromatin modifications and transcription factor interactions under experimental conditions."}, "NF-κB in HCT116 cells": {"system": "NF-κB in HCT116 cells", "experiment": "ChIP-seq of NF-κB binding in YG-22-treated cells", "format": "cell-based, human", "excerpt": "as §1, with “interactions. […]” for “interactions.”\nBioinformatics analysis included quality control using FastQC, adapter trimming with fastp, and alignment of clean reads to the human reference genome (hg38) using Bowtie2. […]"}, "HCT116 cells [3]": {"system": "HCT116 cells", "experiment": "Metabolomics analysis (LC-MS) of YG-22-treated cells", "format": "cell-based", "conditions": "HCT116, YG-22 1.769 mg/mL, 48 h", "excerpt": "as §1\nFor metabolomics analysis, treated and control HCT116 cells (1 × 10^5) are collected, washed with cold PBS, and lysed using 80% methanol to extract metabolites. The lysates are centrifuged at 12,000–15,000 × g at 4°C, and the supernatants are stored at −80°C. Metabolite profiling is performed using liquid chromatography-mass spectrometry (LC-MS) with a reverse-phase LC column and gradient elution, followed by high-resolution mass spectrometry in positive and/or negative ion modes. Data preprocessing involves peak detection, alignment, normalization, and filtering using software such as XCMS or Compound Discoverer. Metabolites are identified by matching m/z values, retention times, and fragmentation patterns to databases like HMDB or METLIN, with MS/MS used for structural confirmation. […] The results are visualized with heatmaps, volcano plots, and pathway diagrams, providing insights into metabolic changes induced by treatment."}, "HCT116 cells [4]": {"system": "HCT116 cells", "experiment": "Transcriptome analysis (RNA-seq) of YG-22-treated cells", "format": "cell-based", "conditions": "HCT116, YG-22 1.769 mg/mL, 48 h, treated vs control", "excerpt": "After comparing the differential expressed peptides between two treatment groups: chemotherapy alone (n = 5) and chemotherapy combined with Jianpi formula (n = 5). Six candidate peptides were finally screened out, including YP-16 (YGRKKRRQRRR-GPSVP), YP-17 (YGRKKRRQRRR-OLTSGP), YG-22 (YGRKKRRQRRR-DGSPGKDGVRG), YM-22 (YGRKKRRQRRR-LGEAFDGARDM), YP-23 (YGRKKRRQRRR-MEPLGRQLTSGP), and YD-28 (YGRKKRRQRRR-EDPQGDAAOKTDTSHHD). And then, the candidate peptides were synthesized based on their amino acid sequences to evaluate their effects on HCT116 cell viability. […] Cell viability was then assessed using the CCK-8 assay (Dojindo, Japan), following the manufacturer’s instructions. After adding the CCK-8 reagent and incubating for the recommended time, absorbance was measured at 450 nm using a spectrophotometric plate reader (Bio-Tek, United States). […]\nFor transcriptome analysis, treated and control HCT116 cells (1 × 10^5) are collected, and total RNA is extracted using RNA isolation kit (Qiagen, Germany) following the manufacturer’s instructions. Total RNA samples were prepared with an initial concentration of at least 20 ng/μL and a total quantity of at least 2 μg, ensuring an A260/A280 ratio between 1.9 and 2.1 for quality control. mRNA was isolated using oligo-dT beads to capture polyA-tailed transcripts, followed by thermal fragmentation into 200–300 bp fragments. […]"}, "[5]": {"conditions": "HCT116, YG-22 1.769 mg/mL, ChIP-seq"}},
  "note": "Where no end group is shown, it is not given here.",
  "data": [
    {"substance": "YGRKKRRQRRR-EDPQGDAAOKTDTSHHD [YD-28]", "values": [
      {"measurement": "effect on HCT116 cell viability", "setting": "HCT116 cells [1]", "value": "notably reduced cell viability"}
    ]},
    {"substance": "YGRKKRRQRRR-LGEAFDGARDM (YGRKKRRQRRRLGEAFDGARDM) [YM-22]", "values": [
      {"measurement": "effect on HCT116 cell viability", "setting": "HCT116 cells [1]", "value": "notably reduced cell viability"}
    ]},
    {"substance": "YGRKKRRQRRR-OLTSGP [YP-17]", "values": [
      {"measurement": "effect on HCT116 cell viability", "setting": "HCT116 cells [1]", "value": "notably reduced cell viability"}
    ]},
    {"substance": "YGRKKRRQRRRDGSPGKDGVRG [YG-22]", "values": [
      {"measurement": "downregulated differential chromatin accessibility peaks", "setting": "HCT116 cells [2]", "value": "1,697"},
      {"measurement": "upregulated differential chromatin accessibility peaks", "setting": "HCT116 cells [2]", "value": 78},
      {"measurement": "effect on HCT116 cell viability", "setting": "HCT116 cells [1]", "value": "notably reduced cell viability"},
      {"measurement": "downregulated differential H3K4me3 peaks", "setting": "H3K4Me3 in HCT116 cells; [5]", "value": 385},
      {"measurement": "upregulated differential H3K4me3 peaks", "setting": "H3K4Me3 in HCT116 cells; [5]", "value": 97},
      {"measurement": "intronic H3K4me3 peaks", "setting": "H3K4Me3 in HCT116 cells; HCT116, YG-22-treated, control 5.2%", "value": 4.5, "unit": "%"},
      {"measurement": "intergenic H3K4me3 peaks", "setting": "H3K4Me3 in HCT116 cells; HCT116, YG-22-treated, control 7.1%", "value": 6.3, "unit": "%"},
      {"measurement": "promoter-associated H3K4me3 peaks", "setting": "H3K4Me3 in HCT116 cells; HCT116, YG-22-treated, control 86.3%", "value": 87.8, "unit": "%"},
      {"measurement": "downregulated NF-κB peaks", "setting": "NF-κB in HCT116 cells; HCT116, YG-22, 48 h, ChIP-seq", "value": 36},
      {"measurement": "upregulated NF-κB peaks", "setting": "NF-κB in HCT116 cells; HCT116, YG-22, 48 h, ChIP-seq", "value": 26},
      {"measurement": "NF-κB peaks in distal intergenic regions", "setting": "NF-κB in HCT116 cells; HCT116, YG-22-treated, 48 h, control 28.9%", "value": 38.4, "unit": "%"},
      {"measurement": "downregulated metabolites, negative ion (NEG) mode", "setting": "HCT116 cells [3]", "value": 127},
      {"measurement": "downregulated metabolites, positive ion (POS) mode", "setting": "HCT116 cells [3]", "value": 70},
      {"measurement": "upregulated metabolites, negative ion (NEG) mode", "setting": "HCT116 cells [3]", "value": 121},
      {"measurement": "upregulated metabolites, positive ion (POS) mode", "setting": "HCT116 cells [3]", "value": 69},
      {"measurement": "downregulated genes (DEGs)", "setting": "HCT116 cells [4]", "value": 252},
      {"measurement": "upregulated genes (DEGs)", "setting": "HCT116 cells [4]", "value": 236}
    ]}
  ]
}
